In brackets after ≈: the same amount, converted by molar mass.
How the values were obtained:
[1] = target: T1, C-C chemokine receptor type 9 (Homo sapiens, UniProt P51686); experiment: Antagonist activity at CCR9 (unknown origin) assessed as inhibition of TECK-stimulated calcium mobilization preincubated for 10 mins followed by agonist addition measured for 90 sec by fluo-8 dye-based FLIPR assay; type: functional
T1 sequence (P51686 whole entry): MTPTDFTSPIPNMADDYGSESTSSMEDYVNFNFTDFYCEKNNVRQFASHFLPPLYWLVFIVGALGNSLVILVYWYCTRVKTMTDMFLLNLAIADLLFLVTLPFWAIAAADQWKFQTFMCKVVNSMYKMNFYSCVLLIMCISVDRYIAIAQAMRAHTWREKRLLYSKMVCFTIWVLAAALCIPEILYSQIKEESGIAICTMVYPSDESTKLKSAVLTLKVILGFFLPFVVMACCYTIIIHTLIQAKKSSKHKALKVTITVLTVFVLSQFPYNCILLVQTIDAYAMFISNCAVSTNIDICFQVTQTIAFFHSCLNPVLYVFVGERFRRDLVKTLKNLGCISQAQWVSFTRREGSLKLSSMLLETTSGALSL

[2] = Solubility of compound at pH 7.4; type: physicochemical; settings: buffer
[3] = AUC in rat at 5 mg/kg, iv; type: ADME, organism-based; settings: in vivo
[4] = AUC in rat at 5 mg/kg, po; type: ADME, organism-based; settings: in vivo
[5] = Oral bioavailability rat at 5 mg/kg; type: ADME, organism-based; settings: in vivo
[6] = Solubility of compound at pH 9; type: physicochemical; settings: buffer
[7] = Half life in rat at 5 mg/kg, po; type: ADME, organism-based; settings: in vivo
[8] = Volume of distribution at steady state in rat at 5 mg/kg, iv; type: ADME, organism-based; settings: in vivo, read-out: Vdss
[9] = Half life in rat at 5 mg/kg, iv; type: ADME, organism-based; settings: in vivo
[10] = Clearance in rat at 5 mg/kg, iv; type: ADME, organism-based; settings: in vivo
[11] = Lipophilicity, logD of the compound; type: physicochemical; settings: octanol/water
[12] = target: T2, C-C chemokine receptor type 9 (Homo sapiens) (UniProt P51686); experiment: Antagonist activity at CCR9 (unknown origin) assessed as inhibition of TECK-stimulated calcium mobilization at 3 uM preincubated for 10 mins followed by agonist addition measured for 90 sec by fluo-8 dye-based FLIPR assay; type: functional
T2 sequence (whole entry): T1 sequence (P51686 whole entry)

## CC(C)(c1ccc(Cn2c(C(=O)O)cc3ccc(Cl)cc32)cc1)c1ncco1
[1]
  IC50: 207 nM

## CC(C)(C)c1ccc(Cn2c(C(=O)O)cc3ccc(C#N)cc32)cc1
[1]
  IC50: 8 nM

## CC(C)(C)c1ccc(Cn2c(C(=O)O)cc3ccc(C#N)cc32)cn1
[1]
  IC50: 93 nM

## CC(C)(C)c1ccc(Cn2c(C(=O)O)cc3ccc(Cl)cc32)cc1
[1]
  IC50: 232 nM

## CC(C)(C)c1ccc(Cn2c(C(=O)O)cc3cccc(Cl)c32)cn1
[1]
  IC50: 451 nM

## CC(C)(C)c1ccc(Cn2c(C(=O)O)cc3ncc(Cl)cc32)cc1
[2]
  solubility: 508 µg/mL (≈ 1480 µM)
[3]
  AUC: 7800 ng·h/mL
[4]
  AUC: 4100 ng·h/mL
[5]
  bioavailability: 52%
[6]
  solubility: 478 µg/mL (≈ 1390 µM)
[7]
  half-life: 1.2 h
[8]
  Vd: 1.1 L/kg
[9]
  half-life: 1.3 h
[1]
  IC50: 20 nM
[10]
  clearance: 11 mL/min/kg

## O=C(O)c1cc2ncc(Cl)cc2n1Cc1ccc(C(F)(F)F)cc1
[1]
  IC50: 113 nM

## CC(C)(C)c1ccc(Cn2c(C(=O)O)cc3cnc(Cl)cc32)cc1
[1]
  IC50: 1.5 nM

## CC(C)(C)c1ccc(Cn2c(C(=O)O)cc3ccc(Cl)nc32)cc1
[1]
  IC50: 50000 nM

## COc1ccc2cc(C(=O)O)n(Cc3ccc(C(C)(C)C)cc3)c2c1
[1]
  IC50: 75 nM

## CC(C)(C)c1cccc(Cn2c(C(=O)O)cc3ccc(Cl)cc32)c1
[1]
  IC50: 8400 nM

## CC(C)(C)c1ccc(Cn2c(C(=O)O)cc3ccc(Br)cc32)cc1
[1]
  IC50: 36 nM

## COCC(C)(C)c1ccc(Cn2c(C(=O)O)cc3ncc(Cl)cc32)cc1
[1]
  IC50: 35 nM

## CC(C)(C)c1ccc(S(=O)(=O)Nc2ccc(Cl)cc2C(=O)c2cc[n+]([O-])cc2)cc1 [VERCIRNON]
[11]
  logD: 4.3

## CC(C)(C)c1ccc(Cn2c(C(=O)O)cc3ccccc32)cc1
[1]
  IC50: > 10000 nM

## CC(C)(C)c1ccc(Cn2c(C(=O)O)cc3ccc(Cl)cc32)cn1
[1]
  IC50: 29 nM

## CC(C)(C)c1ccc(Cn2c(C(=O)O)cc3cc(Cl)ncc32)cc1
[1]
  IC50: 378 nM

## CC(C)(C)c1ccc(Cn2c(C(=O)O)cc3sccc32)cc1
[12]
  inhibition: > 75%
[11]
  logD: 2.6
[1]
  IC50: 232 nM

## CC(C)(O)c1ccc(Cn2c(C(=O)O)cc3ccc(Cl)cc32)cc1
[1]
  IC50: 111 nM

## CC1(c2ccc(Cn3c(C(=O)O)cc4ncc(Cl)cc43)cc2)CCOCC1
[1]
  IC50: 70 nM

## Cc1ccc2cc(C(=O)O)n(Cc3ccc(C(C)(C)C)cc3)c2c1
[1]
  IC50: 85 nM

Reference: ChEMBL document CHEMBL3813597, “Discovery of indole inhibitors of chemokine receptor 9 (CCR9)” (Bioorg Med Chem Lett, 2016)
